Tests used:
Assay in all cases: KINOMEscan competition binding
Details in all cases: compound 10.0 µM
[1] = tested on: KIT (human), P10721 [A829P]
CDK19 (human) = CDK19 (human) (UniProt Q9BWU1)
CHEK2 (human) = CHEK2 (human) (UniProt O96017)
CDK7 (human) = CDK7 (human) (UniProt P50613)
ALK (human) = ALK (human) (UniProt Q9UM73)
SYK (human) = SYK (human) (UniProt P43405)
CDC42BPG (human) = CDC42BPG (human) (UniProt Q6DT37)
MAP4K5 (human) = MAP4K5 (human) (UniProt Q9Y4K4)
EPHA1 (human) = EPHA1 (human) (UniProt P21709)
WEE1 (human) = WEE1 (human) (UniProt P30291)
STK3 (human) = STK3 (human) (UniProt Q13188)
TLK1 (human) = TLK1 (human) (UniProt Q9UKI8)
MAPK8 (human) = MAPK8 (human) (UniProt P45983)
AXL (human) = AXL (human) (UniProt P30530)
PRKACA (human) = PRKACA (human) (UniProt P17612)
PTK2B (human) = PTK2B (human) (UniProt Q14289)
Chain of PTK2B (human) (Q14289 whole entry, looked up): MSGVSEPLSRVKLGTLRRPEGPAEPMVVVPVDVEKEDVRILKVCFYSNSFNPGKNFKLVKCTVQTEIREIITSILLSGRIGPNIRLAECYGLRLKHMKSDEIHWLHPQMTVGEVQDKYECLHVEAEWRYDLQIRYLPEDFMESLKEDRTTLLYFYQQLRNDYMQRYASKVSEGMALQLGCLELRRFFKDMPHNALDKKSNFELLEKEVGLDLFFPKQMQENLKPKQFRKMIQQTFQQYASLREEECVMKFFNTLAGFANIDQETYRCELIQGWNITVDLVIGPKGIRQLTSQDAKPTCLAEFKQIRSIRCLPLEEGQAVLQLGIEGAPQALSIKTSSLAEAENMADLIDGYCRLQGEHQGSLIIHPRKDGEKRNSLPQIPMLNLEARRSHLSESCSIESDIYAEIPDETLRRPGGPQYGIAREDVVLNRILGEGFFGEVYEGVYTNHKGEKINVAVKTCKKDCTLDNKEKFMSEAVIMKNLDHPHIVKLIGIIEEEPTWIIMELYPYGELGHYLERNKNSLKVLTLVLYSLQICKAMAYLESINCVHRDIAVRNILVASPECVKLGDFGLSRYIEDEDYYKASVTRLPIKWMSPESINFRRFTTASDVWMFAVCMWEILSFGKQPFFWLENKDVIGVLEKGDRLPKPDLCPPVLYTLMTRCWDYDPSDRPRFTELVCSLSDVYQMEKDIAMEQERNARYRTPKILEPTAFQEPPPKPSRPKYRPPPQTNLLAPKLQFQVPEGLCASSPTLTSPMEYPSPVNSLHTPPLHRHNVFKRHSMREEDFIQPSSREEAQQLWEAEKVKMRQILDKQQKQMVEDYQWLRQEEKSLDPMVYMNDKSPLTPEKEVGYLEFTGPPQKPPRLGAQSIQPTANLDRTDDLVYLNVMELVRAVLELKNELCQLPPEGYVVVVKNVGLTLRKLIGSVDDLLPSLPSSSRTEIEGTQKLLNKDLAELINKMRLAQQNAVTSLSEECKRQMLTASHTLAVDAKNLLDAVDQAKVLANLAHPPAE

MAP2K6 (human) = MAP2K6 (human) (UniProt P52564)
ADCK4 (human) = ADCK4 (human) (UniProt Q96D53)
KDR (human) = KDR (human) (UniProt P35968)
SRPK2 (human) = SRPK2 (human) (UniProt P78362)
EPHA2 (human) = EPHA2 (human) (UniProt P29317)
MAPK11 (human) = MAPK11 (human) (UniProt Q15759)
PIM1 (human) = PIM1 (human) (UniProt P11309)
BMPR1B (human) = BMPR1B (human) (UniProt O00238)
Chain of BMPR1B (human) (O00238 whole entry, looked up): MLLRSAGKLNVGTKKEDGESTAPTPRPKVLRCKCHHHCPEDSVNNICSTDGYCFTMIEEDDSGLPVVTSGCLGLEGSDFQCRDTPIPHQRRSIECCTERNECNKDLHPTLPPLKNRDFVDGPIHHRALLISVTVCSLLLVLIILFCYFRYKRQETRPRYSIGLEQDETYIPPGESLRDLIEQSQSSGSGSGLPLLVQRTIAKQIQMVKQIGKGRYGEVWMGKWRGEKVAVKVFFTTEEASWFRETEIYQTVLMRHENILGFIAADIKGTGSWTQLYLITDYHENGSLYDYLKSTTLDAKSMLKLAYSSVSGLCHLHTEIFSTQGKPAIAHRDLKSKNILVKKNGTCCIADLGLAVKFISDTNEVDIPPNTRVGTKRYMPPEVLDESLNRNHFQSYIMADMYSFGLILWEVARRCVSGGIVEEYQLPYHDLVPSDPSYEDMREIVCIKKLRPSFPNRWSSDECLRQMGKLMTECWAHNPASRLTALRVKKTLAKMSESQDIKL

VRK2 (human) = VRK2 (human) (UniProt Q86Y07)
RAF1 (human) = RAF1 (human) (UniProt P04049)
HIPK3 (human) = HIPK3 (human) (UniProt Q9H422)
MAPK4 (human) = MAPK4 (human) (UniProt P31152)
EPHA5 (human) = EPHA5 (human) (UniProt P54756)
CAMK2A (human) = CAMK2A (human) (UniProt Q9UQM7)
Chain of CAMK2A (human) (Q9UQM7 whole entry, looked up): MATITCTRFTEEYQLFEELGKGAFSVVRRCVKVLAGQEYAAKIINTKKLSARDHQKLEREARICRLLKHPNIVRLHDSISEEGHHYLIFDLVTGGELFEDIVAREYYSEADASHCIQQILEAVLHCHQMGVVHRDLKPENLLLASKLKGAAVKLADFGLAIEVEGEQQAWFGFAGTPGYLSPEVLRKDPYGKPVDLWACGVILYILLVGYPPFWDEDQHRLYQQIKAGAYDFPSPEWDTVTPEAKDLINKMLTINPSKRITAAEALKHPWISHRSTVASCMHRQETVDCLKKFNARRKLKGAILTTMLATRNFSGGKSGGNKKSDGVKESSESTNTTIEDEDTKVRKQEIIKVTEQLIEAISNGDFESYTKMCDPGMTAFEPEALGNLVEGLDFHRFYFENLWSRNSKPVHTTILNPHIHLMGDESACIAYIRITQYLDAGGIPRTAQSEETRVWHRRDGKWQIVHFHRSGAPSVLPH

DCLK1 (human) = DCLK1 (human) (UniProt O15075)
EIF2AK1 (human) = EIF2AK1 (human) (UniProt Q9BQI3)
YES1 (human) = YES1 (human) (UniProt P07947)
Chain of YES1 (human) (P07947 whole entry, looked up): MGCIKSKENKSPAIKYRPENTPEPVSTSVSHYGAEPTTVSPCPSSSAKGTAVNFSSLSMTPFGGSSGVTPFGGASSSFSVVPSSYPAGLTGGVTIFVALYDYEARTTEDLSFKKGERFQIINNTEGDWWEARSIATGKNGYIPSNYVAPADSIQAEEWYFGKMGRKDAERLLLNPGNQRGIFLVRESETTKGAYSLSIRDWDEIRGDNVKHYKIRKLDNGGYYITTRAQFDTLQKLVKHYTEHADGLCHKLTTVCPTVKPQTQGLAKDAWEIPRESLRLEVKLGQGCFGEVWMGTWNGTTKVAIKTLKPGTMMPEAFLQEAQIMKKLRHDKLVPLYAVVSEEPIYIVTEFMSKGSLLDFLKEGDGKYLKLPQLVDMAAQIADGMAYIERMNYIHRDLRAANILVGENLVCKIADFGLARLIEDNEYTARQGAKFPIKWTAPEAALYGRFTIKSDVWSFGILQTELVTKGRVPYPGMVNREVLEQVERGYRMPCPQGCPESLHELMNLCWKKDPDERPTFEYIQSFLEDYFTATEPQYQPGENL

ACVR2A (human) = ACVR2A (human) (UniProt P27037)
SRMS (human) = SRMS (human) (UniProt Q9H3Y6)
Chain of SRMS (human) (Q9H3Y6 whole entry, looked up): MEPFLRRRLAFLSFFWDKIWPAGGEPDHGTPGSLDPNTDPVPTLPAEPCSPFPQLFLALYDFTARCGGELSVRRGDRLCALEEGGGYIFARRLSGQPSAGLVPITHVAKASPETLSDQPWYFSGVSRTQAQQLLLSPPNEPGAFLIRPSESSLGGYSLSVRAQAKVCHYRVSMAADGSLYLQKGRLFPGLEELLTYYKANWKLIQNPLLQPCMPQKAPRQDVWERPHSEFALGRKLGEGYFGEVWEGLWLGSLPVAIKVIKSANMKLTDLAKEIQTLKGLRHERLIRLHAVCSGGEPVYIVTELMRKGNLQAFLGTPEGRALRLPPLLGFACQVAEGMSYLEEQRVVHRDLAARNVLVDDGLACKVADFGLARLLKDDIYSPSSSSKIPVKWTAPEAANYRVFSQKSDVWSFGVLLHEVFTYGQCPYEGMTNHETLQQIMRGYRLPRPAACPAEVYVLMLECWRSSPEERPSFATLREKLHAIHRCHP

CAMK2B (human) = CAMK2B (human) (UniProt Q13554)
Chain of CAMK2B (human) (Q13554 whole entry, looked up): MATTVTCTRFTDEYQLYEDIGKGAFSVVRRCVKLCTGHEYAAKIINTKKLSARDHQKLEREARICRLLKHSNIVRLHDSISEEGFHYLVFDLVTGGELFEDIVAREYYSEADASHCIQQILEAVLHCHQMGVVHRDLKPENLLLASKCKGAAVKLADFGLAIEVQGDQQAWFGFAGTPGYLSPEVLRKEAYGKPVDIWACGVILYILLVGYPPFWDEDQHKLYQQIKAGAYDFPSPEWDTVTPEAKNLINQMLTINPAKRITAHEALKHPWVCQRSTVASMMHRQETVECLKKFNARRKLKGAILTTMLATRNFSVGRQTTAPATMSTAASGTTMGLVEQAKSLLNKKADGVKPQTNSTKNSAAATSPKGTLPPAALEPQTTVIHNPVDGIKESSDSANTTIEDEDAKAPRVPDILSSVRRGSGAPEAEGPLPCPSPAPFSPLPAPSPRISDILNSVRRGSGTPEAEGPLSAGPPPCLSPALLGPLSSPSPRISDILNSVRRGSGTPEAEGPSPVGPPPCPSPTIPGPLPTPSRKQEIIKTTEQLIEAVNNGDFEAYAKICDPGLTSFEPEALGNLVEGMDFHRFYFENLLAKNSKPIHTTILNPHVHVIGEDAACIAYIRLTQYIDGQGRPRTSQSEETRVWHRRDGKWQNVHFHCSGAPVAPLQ

RPS6KA2 KD1 (human) = RPS6KA2 KD1 (human) (UniProt Q15349)
CSNK2A2 (human) = CSNK2A2 (human) (UniProt P19784)
Chain of CSNK2A2 (human) (P19784 whole entry, looked up): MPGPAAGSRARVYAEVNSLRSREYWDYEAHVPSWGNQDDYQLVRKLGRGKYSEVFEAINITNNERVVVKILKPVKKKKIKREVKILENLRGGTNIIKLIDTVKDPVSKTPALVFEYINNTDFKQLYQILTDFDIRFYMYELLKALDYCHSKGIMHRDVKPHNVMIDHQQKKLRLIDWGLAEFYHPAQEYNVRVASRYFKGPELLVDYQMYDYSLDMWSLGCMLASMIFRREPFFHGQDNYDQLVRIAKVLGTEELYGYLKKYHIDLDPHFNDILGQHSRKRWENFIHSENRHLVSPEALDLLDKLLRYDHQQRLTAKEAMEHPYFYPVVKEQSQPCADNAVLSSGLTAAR

ULK1 (human) = ULK1 (human) (UniProt O75385)
ROCK1 (human) = ROCK1 (human) (UniProt Q13464)

Chain of CDK7 (human) (P50613 whole entry, looked up): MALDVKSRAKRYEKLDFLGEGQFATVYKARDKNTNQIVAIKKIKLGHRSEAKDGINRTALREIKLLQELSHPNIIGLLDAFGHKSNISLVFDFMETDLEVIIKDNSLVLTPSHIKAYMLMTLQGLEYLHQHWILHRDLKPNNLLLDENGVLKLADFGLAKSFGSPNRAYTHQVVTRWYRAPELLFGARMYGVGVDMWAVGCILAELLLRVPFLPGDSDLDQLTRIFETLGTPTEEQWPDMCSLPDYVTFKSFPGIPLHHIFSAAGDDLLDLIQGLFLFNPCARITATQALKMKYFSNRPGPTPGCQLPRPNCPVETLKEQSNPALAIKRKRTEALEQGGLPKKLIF
Chain of CDK19 (human) (Q9BWU1 whole entry, looked up): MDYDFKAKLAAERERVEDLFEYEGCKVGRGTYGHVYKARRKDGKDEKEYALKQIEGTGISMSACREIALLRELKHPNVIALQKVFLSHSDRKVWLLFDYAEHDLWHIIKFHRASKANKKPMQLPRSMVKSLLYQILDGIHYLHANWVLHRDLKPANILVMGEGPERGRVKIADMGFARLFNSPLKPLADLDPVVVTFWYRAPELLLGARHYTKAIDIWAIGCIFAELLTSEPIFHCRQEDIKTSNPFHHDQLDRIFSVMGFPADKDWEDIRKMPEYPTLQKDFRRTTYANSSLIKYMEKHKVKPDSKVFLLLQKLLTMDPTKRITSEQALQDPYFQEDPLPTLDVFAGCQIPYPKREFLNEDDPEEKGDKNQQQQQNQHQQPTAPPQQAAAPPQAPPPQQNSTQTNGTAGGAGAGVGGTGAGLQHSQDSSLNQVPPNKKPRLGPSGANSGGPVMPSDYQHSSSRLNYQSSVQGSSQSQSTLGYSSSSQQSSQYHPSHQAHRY

Compound | kinase still bound, per cent of control [1] | kinase still bound, per cent of control (CDK19 (human)) | kinase still bound, per cent of control (CHEK2 (human)) | kinase still bound, per cent of control (CDK7 (human)) | kinase still bound, per cent of control (ALK (human)) | kinase still bound, per cent of control (SYK (human)) | kinase still bound, per cent of control (CDC42BPG (human)) | kinase still bound, per cent of control (MAP4K5 (human)) | kinase still bound, per cent of control (EPHA1 (human)) | kinase still bound, per cent of control (WEE1 (human)) | kinase still bound, per cent of control (STK3 (human)) | kinase still bound, per cent of control (TLK1 (human)) | kinase still bound, per cent of control (MAPK8 (human)) | kinase still bound, per cent of control (AXL (human)) | kinase still bound, per cent of control (PRKACA (human)) | kinase still bound, per cent of control (PTK2B (human)) | kinase still bound, per cent of control (MAP2K6 (human)) | kinase still bound, per cent of control (ADCK4 (human)) | kinase still bound, per cent of control (KDR (human)) | kinase still bound, per cent of control (SRPK2 (human)) | other results
COc1cc2c(Nc3ccc(NC(=O)c4ccccc4)cc3)ncnc2cc1OCCCN1CCOCC1 | 59% | 100% | 100% | 6.5% | 26% | 69% | 72% | 2.7% | 100% | 100% | 100% | 78% | 67% | 1.8% | 100% | 98% | 86% | 66% | 26% | 86% | kinase still bound, per cent of control (EPHA2 (human)): 84%; kinase still bound, per cent of control (MAPK11 (human)): 84%; kinase still bound, per cent of control (PIM1 (human)): 100%; kinase still bound, per cent of control (BMPR1B (human)): 26%; kinase still bound, per cent of control (VRK2 (human)): 100%; kinase still bound, per cent of control (RAF1 (human)): 100%; kinase still bound, per cent of control (HIPK3 (human)): 52%; kinase still bound, per cent of control (MAPK4 (human)): 100%; kinase still bound, per cent of control (EPHA5 (human)): 100%; kinase still bound, per cent of control (CAMK2A (human)): 85%; kinase still bound, per cent of control (DCLK1 (human)): 73%; kinase still bound, per cent of control (EIF2AK1 (human)): 20%; kinase still bound, per cent of control (YES1 (human)): 16%; kinase still bound, per cent of control (ACVR2A (human)): 100%; kinase still bound, per cent of control (SRMS (human)): 2.4%; kinase still bound, per cent of control (CAMK2B (human)): 78%; kinase still bound, per cent of control (RPS6KA2 KD1 (human)): 84%; kinase still bound, per cent of control (CSNK2A2 (human)): 100%; kinase still bound, per cent of control (ULK1 (human)): 48%; kinase still bound, per cent of control (ROCK1 (human)): 98%
O=c1[nH]c2ccccc2n1C1CCN(Cc2ccc(-c3nc4cc5[nH]cnc5cc4nc3-c3ccccc3)cc2)CC1 | 100% | 75% | 100% | 82% | 37% | 84% | 92% | 64% | 100% | 99% | 100% | 100% | 79% | 45% | 100% | 91% | 100% | 100% | 86% | 85% | kinase still bound, per cent of control (EPHA2 (human)): 100%; kinase still bound, per cent of control (MAPK11 (human)): 95%; kinase still bound, per cent of control (PIM1 (human)): 93%; kinase still bound, per cent of control (BMPR1B (human)): 88%; kinase still bound, per cent of control (VRK2 (human)): 76%; kinase still bound, per cent of control (RAF1 (human)): 99%; kinase still bound, per cent of control (HIPK3 (human)): 87%; kinase still bound, per cent of control (MAPK4 (human)): 100%; kinase still bound, per cent of control (EPHA5 (human)): 100%; kinase still bound, per cent of control (CAMK2A (human)): 98%; kinase still bound, per cent of control (DCLK1 (human)): 86%; kinase still bound, per cent of control (EIF2AK1 (human)): 87%; kinase still bound, per cent of control (YES1 (human)): 100%; kinase still bound, per cent of control (ACVR2A (human)): 88%; kinase still bound, per cent of control (SRMS (human)): 65%; kinase still bound, per cent of control (CAMK2B (human)): 86%; kinase still bound, per cent of control (RPS6KA2 KD1 (human)): 51%; kinase still bound, per cent of control (CSNK2A2 (human)): 92%; kinase still bound, per cent of control (ULK1 (human)): 78%; kinase still bound, per cent of control (ROCK1 (human)): 66%
